Source: patent publication US20090111801A1, “SUBSTITUTED PYRAZINONE DERIVATIVES FOR USE AS A MEDICINE” (Janssen Pharmaceutica N.V., priority 2006, published 2009)

Columns and labels:
[1] = biological target: T1, hα2A receptor (Homo sapiens, UniProt P08913); assay: Radioligand binding experiment for α2A-adrenoceptor ([3H]raulwolscine, CHO cell membranes); details: [3H]raulwolscine binding; for IC50: read-out: h-α2A pIC50 (converted)
T1 construct: expressed in transfected cells; host or cells: CHO cells, stably transfected; membrane preparation
T1 sequence (P08913 1-465): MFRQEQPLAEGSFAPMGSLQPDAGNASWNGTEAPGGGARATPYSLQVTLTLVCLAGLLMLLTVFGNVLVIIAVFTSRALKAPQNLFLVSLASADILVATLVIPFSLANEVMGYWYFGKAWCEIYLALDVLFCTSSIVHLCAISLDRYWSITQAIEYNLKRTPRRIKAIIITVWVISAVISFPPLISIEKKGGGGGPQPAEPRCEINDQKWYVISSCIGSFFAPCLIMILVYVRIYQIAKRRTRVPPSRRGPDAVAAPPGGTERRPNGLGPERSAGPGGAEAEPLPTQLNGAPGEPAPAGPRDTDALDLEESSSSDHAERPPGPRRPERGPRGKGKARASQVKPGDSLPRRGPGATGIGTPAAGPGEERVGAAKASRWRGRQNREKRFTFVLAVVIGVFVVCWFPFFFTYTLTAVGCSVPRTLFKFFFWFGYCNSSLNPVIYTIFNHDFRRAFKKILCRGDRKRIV
Method: (§1) The interaction of a compound of Formula (I) with α2-adrenoceptor receptors was assessed in in vitro radioligand binding experiments. In general, a low concentration of a radioligand with a high binding affinity for a particular receptor or transporter is incubated with a sample of a tissue preparation enriched in a particular receptor or transporter or with a preparation of cells expressing cloned human receptors in a buffered medium. During the incubation, the radioligand binds to the receptor or transporter. When equilibrium of binding is reached, the receptor bound radioactivity is separated from the non-bound radioactivity, and the receptor- or transporter-bound activity is counted. The interaction of the test compounds with the receptor is assessed in competition binding experiments. Various concentrations of the test compound are added to the incubation mixture containing the receptor- or transporter preparation and the radioligand. The test compound in proportion to its binding affinity and its concentration inhibits binding of the radioligand. The radioligand used for hα2A and hα2C receptor binding was [^3H]-raulwolscine.
(§2) CHO cells, stabile transfected with human adrenergic-α2A and α2C receptor cDNA, were cultured in Dulbecco's Modified Eagle's Medium (DMEM)/Nutrient mixture Ham's F12 (ratio 1:1)(Gibco, Gent-Belgium) supplemented with 10% heat inactivated fetal calf serum (Life Technologies, Merelbeke-Belgium) and antibiotics (100 IU/ml penicillin G, 100 μg/ml streptomycin sulphate, 110 μg/ml pyruvic acid and 100 μg/ml L-glutamine). One day before collection, cells were induced with 5 mM sodiumbutyrate. Upon 80-90% of confluence, cells were scraped in phosphate buffered saline without Ca^2+ and Mg^2+ and collected by centrifugation at 1500×g for 10 minutes. The cells were homogenised in Tris-HCl 50 mM using an Ultraturrax homogenizer and centrifuged for 10 minutes at 23,500×g. The pellet was washed once by resuspension and rehomogenization and the final pellet was resuspended in Tris-HCl, divided in 1 ml aliquots and stored at −70° C.
(§3) Membranes were thawed and re-homogenized in incubation buffer (glycylglycine 25 mM, pH 8.0). […] Filters were rinsed extensively with ice-cold rinsing buffer (Tris-HCl 50 mM pH 7.4). Filter-bound radioactivity was determined by scintillation counting in a Topcount (Packard, Meriden, Conn.) and results were expressed as counts per minute (cpm). Non-specific binding was determined in the presence of 1 μM oxymetazoline for the hα2A receptor and 1 μM spiroxatrine for hα2C receptor.
(§4) Data from assays in the presence of compound were calculated as a percentage of total binding measured in the absence of test compound. Inhibition curves, plotting percent of total binding versus the log value of the concentration of the test compound, were automatically generated, and sigmoidal inhibition curves were fitted using non-linear regression. The pIC50 values of test compounds were derived from individual curves.

[2] = biological target: T2, 5HT-Transporter (Homo sapiens, UniProt P31645); assay: Binding experiment for the 5HT-transporter ([3H]paroxetine, human platelet membranes); details: [3H]paroxetine 0.5 nM; for IC50: read-out: h-5HTT pIC50 (converted)
T2 construct: Human platelet membranes (Oceanix Biosciences Corporation, Hanover, Md., USA) were thawed; tissue Oceanix Biosciences Corporation, Hanover, Md., USA; host or cells: human platelet membranes
Method: as §1
Human platelet membranes (Oceanix Biosciences Corporation, Hanover, Md., USA) were thawed, diluted in buffer (Tris-HCl 50 mM, 120 mM NaCl and 5 mM KCl) and quickly (max 3 s) homogenised with an Ultraturrax homogenizer. […] Incubation was stopped by rapid filtration of the incubation mixture over GF/B filters, pre-wetted with 0.1% polyethyleneamine, using a Filtermate196 harvester (Packard, Meriden, Conn.). Filters were rinsed extensively with ice-cold buffer and radioactivity on the filters was counted in a Topcount liquid scintillation counter (Packard, Meriden, Conn.). Data were expressed as cpm. Imipramine (at 1 μM final concentration) was used to determine the non-specific binding.
as §4

[3] = biological target: T3, hα2C receptor (Homo sapiens, UniProt P18825); assay: Radioligand binding experiment for α2C-adrenoceptor ([3H]raulwolscine, CHO cell membranes); details: [3H]raulwolscine binding; for IC50: read-out: h-α2C pIC50 (converted)
T3 construct: expressed in transfected cells; host or cells: CHO cells, stably transfected; membrane preparation
T3 sequence (P18825 1-462): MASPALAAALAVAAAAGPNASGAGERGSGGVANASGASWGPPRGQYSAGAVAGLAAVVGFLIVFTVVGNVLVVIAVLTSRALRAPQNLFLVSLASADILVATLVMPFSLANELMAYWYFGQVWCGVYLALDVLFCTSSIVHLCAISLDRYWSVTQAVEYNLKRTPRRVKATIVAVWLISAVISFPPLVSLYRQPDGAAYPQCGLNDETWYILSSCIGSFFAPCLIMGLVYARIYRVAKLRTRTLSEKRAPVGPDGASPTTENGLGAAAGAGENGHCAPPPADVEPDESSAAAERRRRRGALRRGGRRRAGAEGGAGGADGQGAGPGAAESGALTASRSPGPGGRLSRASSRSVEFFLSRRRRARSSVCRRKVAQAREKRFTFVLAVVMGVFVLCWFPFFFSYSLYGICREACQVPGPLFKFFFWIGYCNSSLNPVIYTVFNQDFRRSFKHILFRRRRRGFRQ
Method: as §1, §2, §3, §4

T2 sequence (P31645 whole entry): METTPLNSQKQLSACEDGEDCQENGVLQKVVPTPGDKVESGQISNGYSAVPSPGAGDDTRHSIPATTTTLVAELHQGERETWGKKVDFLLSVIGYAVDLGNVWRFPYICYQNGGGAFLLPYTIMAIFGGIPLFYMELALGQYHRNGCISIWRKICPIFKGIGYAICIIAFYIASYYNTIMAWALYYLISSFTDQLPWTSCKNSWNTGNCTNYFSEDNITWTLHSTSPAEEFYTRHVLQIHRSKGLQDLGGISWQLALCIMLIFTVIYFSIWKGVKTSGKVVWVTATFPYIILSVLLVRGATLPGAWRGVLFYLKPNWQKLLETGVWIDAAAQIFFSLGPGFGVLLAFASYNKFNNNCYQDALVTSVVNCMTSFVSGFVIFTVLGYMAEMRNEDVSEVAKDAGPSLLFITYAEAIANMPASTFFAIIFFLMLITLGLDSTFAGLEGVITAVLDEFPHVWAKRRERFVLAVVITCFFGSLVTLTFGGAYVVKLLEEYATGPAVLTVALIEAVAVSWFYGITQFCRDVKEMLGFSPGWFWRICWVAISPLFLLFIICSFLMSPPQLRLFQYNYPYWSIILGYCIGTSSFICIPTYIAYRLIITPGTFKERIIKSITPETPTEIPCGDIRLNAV

Row | IC50 [1] | IC50 [2] | IC50 [3] | h-α2A pIC50 [1] | h-5HTT pIC50 [2] | h-α2C pIC50 [3] | Structure (SMILES)
1 | 200 nM | 2510 nM | 12.6 nM | – | – | – | CCCC(=O)NCCCn1ccnc(NC2CCN(C/C(C)=C/c3ccccc3)CC2)c1=O [1-32]
2 | 200 nM | 794 nM | 12.6 nM | – | – | – | C/C(=C\c1ccccc1)CN1CCC(Nc2nccn(CCCNC(=O)CC3CCCC3)c2=O)CC1 [1-33]
3 | 63.1 nM | 631 nM | 20 nM | – | – | – | C/C(=C\c1ccccc1)CN1CCC(Nc2nccn(-c3cccc(NC(=O)CC4CCCC4)c3)c2=O)CC1 [1-34]
4 | 251 nM | 1260 nM | 50.1 nM | – | – | – | C/C(=C\c1ccccc1)CN1CCC(Nc2nccn(-c3ccc(NC(=O)CC4CCCC4)cc3)c2=O)CC1 [1-35]
5 | 158 nM | 398 nM | 39.8 nM | – | – | – | C/C(=C\c1ccccc1)CN1CCC(Nc2nccn(Cc3ccc(CNC(=O)C4CCCCC4)cc3)c2=O)CC1 [1-36]
6 | 316 nM | 7940 nM | 12.6 nM | – | – | – | CC(=O)CN(C)CCCn1ccnc(NC2CCN(C/C(C)=C/c3ccccc3)CC2)c1=O [1-38]
7 | 79.4 nM | 200 nM | 7.94 nM | – | – | – | C/C(=C\c1ccccc1)CN1CCC(Nc2nccn(CCCNc3ccccc3)c2=O)CC1 [1-39]
8 | 50.1 nM | 1000 nM | 3.16 nM | – | – | – | C/C(=C\c1ccccc1)CN1CCC(Nc2nccn(CC(=O)Nc3ccccc3)c2=O)CC1 [1-40]
9 | 100 nM | 398 nM | 3.16 nM | – | – | – | C/C(=C\c1ccccc1)CN1CCC(Nc2nccn(CC(=O)N(C)c3ccccc3)c2=O)CC1 [1-41]
10 | 100 nM | 501 nM | 3.98 nM | – | – | – | C/C(=C\c1ccccc1)CN1CCC(Nc2nccn(CC(=O)Nc3ccc(F)cc3)c2=O)CC1 [1-42]
11 | 12.6 nM | 50.1 nM | 3.16 nM | – | – | – | C/C(=C\c1ccccc1)CN1CCC(Nc2nccn(-c3cccc(Nc4ccc(F)cc4)c3)c2=O)CC1 [1-43]
12 | 100 nM | 794 nM | 5.01 nM | – | – | – | C/C(=C\c1ccccc1)CN1CCC(Nc2nccn(-c3ccc(Nc4ccc(F)cc4)cc3)c2=O)CC1 [1-44]
13 | 126 nM | 2000 nM | 39.8 nM | – | – | – | C/C(=C\c1ccccc1)CN1CCC(Nc2nccn(CC(=O)Nc3ccc(N4CCOCC4)cc3)c2=O)CC1 [1-45]
14 | 126 nM | 2000 nM | 5.01 nM | – | – | – | C/C(=C\c1ccccc1)CN1CCC(Nc2nccn(CC(=O)NCc3ccccc3)c2=O)CC1 [1-48]
15 | 25.1 nM | 251 nM | 3.98 nM | – | – | – | C/C(=C\c1ccccc1)CN1CCC(Nc2nccn(-c3cccc(NCc4ccccc4)c3)c2=O)CC1 [1-49]
16 | 100 nM | 631 nM | 3.16 nM | – | – | – | C/C(=C\c1ccccc1)CN1CCC(Nc2nccn(-c3ccc(NCc4ccccc4)cc3)c2=O)CC1 [1-50]
17 | 50.1 nM | 1000 nM | 1 nM | – | – | – | C/C(=C\c1ccccc1)CN1CCC(Nc2nccn(CCCN(C)Cc3ccccc3)c2=O)CC1 [1-51]

Row | IC50 [1] | IC50 [2] | IC50 [3] | h-α2A pIC50 [1] | h-5HTT pIC50 [2] | h-α2C pIC50 [3] | Structure (SMILES)
18 | 63.1 nM | 631 nM | 2.51 nM | – | – | – | C/C(=C\c1ccccc1)CN1CCC(Nc2nccn(CC(=O)N(C)Cc3ccccc3)c2=O)CC1 [1-52]
19 | – | – | – | 8.4 | 6.7 | 8.6 | C/C(=C\c1ccccc1)CN1CCC(Nc2nccn(-c3cccc(CN(C)Cc4ccccc4)c3)c2=O)CC1 [1-53]
20 | 50.1 nM | 200 nM | 3.98 nM | – | – | – | C/C(=C\c1ccccc1)CN1CCC(Nc2nccn(-c3ccc(CN(C)Cc4ccccc4)cc3)c2=O)CC1 [1-54]
21 | 63.1 nM | 316 nM | 1.26 nM | – | – | – | C/C(=C\c1ccccc1)CN1CCC(Nc2nccn(CC(=O)NCc3ccc(F)cc3)c2=O)CC1 [1-55]
22 | 158 nM | 251 nM | 15.8 nM | – | – | – | C/C(=C\c1ccccc1)CN1CCC(Nc2nccn(-c3ccc(C(=O)NCc4ccc(F)cc4)cc3)c2=O)CC1 [1-56]
23 | 126 nM | 3160 nM | 3.98 nM | – | – | – | C/C(=C\c1ccccc1)CN1CCC(Nc2nccn(CC(=O)NCCc3ccccc3)c2=O)CC1 [1-57]
24 | 25.1 nM | 398 nM | 6.31 nM | – | – | – | C/C(=C\c1ccccc1)CN1CCC(Nc2nccn(-c3cccc(NCCc4ccccc4)c3)c2=O)CC1 [1-58]
25 | 79.4 nM | 1260 nM | 10 nM | – | – | – | C/C(=C\c1ccccc1)CN1CCC(Nc2nccn(-c3ccc(NCCc4ccccc4)cc3)c2=O)CC1 [1-59]
26 | 79.4 nM | 794 nM | 10 nM | – | – | – | C/C(=C\c1ccccc1)CN1CCC(Nc2nccn(CC(=O)NCCCc3ccccc3)c2=O)CC1 [1-60]
27 | 100 nM | 1260 nM | 6.31 nM | – | – | – | C/C(=C\c1ccccc1)CN1CCC(Nc2nccn(CC(=O)N(C)CCc3ccccc3)c2=O)CC1 [1-61]
28 | 126 nM | 1000 nM | 3.16 nM | – | – | – | C/C(=C\c1ccccc1)CN1CCC(Nc2nccn(CC(=O)NC(C)(C)Cc3ccccc3)c2=O)CC1 [1-62]
29 | 100 nM | 631 nM | 12.6 nM | – | – | – | COc1ccc(NC(=O)Cn2ccnc(NC3CCN(C/C(C)=C/c4ccccc4)CC3)c2=O)cc1 [1-63]
30 | 251 nM | 1580 nM | 12.6 nM | – | – | – | COc1ccc(CNC(=O)Cn2ccnc(NC3CCN(C/C(C)=C/c4ccccc4)CC3)c2=O)cc1 [1-64]
31 | 100 nM | 794 nM | 3.98 nM | – | – | – | COc1cc(CNC(=O)Cn2ccnc(NC3CCN(C/C(C)=C/c4ccccc4)CC3)c2=O)cc(OC)c1 [1-65]
32 | 79.4 nM | 794 nM | 12.6 nM | – | – | – | CCCCN(Cc1ccccc1)C(=O)Cn1ccnc(NC2CCN(C/C(C)=C/c3ccccc3)CC2)c1=O [1-66]
33 | 100 nM | 1000 nM | 3.16 nM | – | – | – | C/C(=C\c1ccccc1)CN1CCC(Nc2nccn(CC(=O)N(CCO)Cc3ccccc3)c2=O)CC1 [1-67]
34 | 158 nM | 794 nM | 12.6 nM | – | – | – | C/C(=C\c1ccccc1)CN1CCC(Nc2nccn(CC(=O)NCC(c3ccccc3)c3ccccc3)c2=O)CC1 [1-68]
